Laboratory results published in US20250382277A1, “SMALL MOLECULE INHIBITORS OF DYRK/CLK AND USES THEREOF” (Arizona Board of Regents on Behalf of the University of …, priority 2022, published 2025).
Structures can show the parent of a compound that is named as a salt.

Tests used:
WNT signaling = assay: WNT reporter assay (TopGFP reporter); assay type: cell-based; settings: Human Colonic Epithelial Cells (HCEC) with TopGFP reporter, stimulated with 10 μM CHIR99021, 24 hours
From the text: KDs were obtained from Eurofins.

DYRK1A = DYRK1A (Homo sapiens, UniProt Q13627); assay: biochemical
Protocol: KDs were obtained from Eurofins. The KdELECT Kinase Assay Panel enables quantitated compound binding affinity against any kinase assay. Inhibitor binding constants (Kd values) are calculated from duplicate 11-point dose-response curves. Measurements are made under optimized conditions that generate true thermodynamic Kd values which facilitate direct comparison of inhibitor affinity across kinases.

Structure (SMILES) | EC50 (WNT signaling) | Kd (DYRK1A)
Fc1cc(-c2ncnc3ccc(-c4c[nH]c5ncccc45)cc23)cnc1N1CCNCC1 [Compound 27, 4-(5-fluoro-6-(piperazin-1-yl)pyridin-3-yl)-6-(1H-pyrrolo[2,3-b]pyridin-3-yl)quinazoline] | 100 to 1000 nM | < 100 nM
CN1[C@@H]2CC[C@H]1CN(c1ccc(-c3ncnc4ccc(-c5ccnc(N)c5)cc34)cc1F)C2 [Compound 43, 4-(4-(3-fluoro-4-((1R,5S)-8-methyl-3,8-diazabicyclo[3.2.1]octan-3-yl)phenyl)quinazolin-6-yl)pyridin-2-amine] | 100 to 1000 nM | < 100 nM
CN1CCN(c2ncc(-c3ncnc4ccc(-c5ccnc(N)c5)cc34)cc2F)CC1 [Compound 9, 4-(4-(5-fluoro-6-(4-methylpiperazin-1-yl)pyridin-3-yl)quinazolin-6-yl)pyridin-2-amine] | 100 to 1000 nM | < 100 nM
Nc1cc(-c2ccc3ncnc(-c4cnc(N5CCC6(CCOC6)CC5)c(F)c4)c3c2)ccn1 [Compound 23, 4-(4-(5-fluoro-6-(2-oxa-8-azaspiro[4.5]decan-8-yl)pyridin-3-yl)quinazolin-6-yl)pyridin-2-amine hydrochloride] | 100 to 1000 nM | < 100 nM
Nc1cc(-c2ccc3ncnc(-c4ccc(N5CCN(C6COC6)CC5)cc4)c3c2)ccn1 [Compound 42, 4-(4-(4-(4-(oxetan-3-yl)piperazin-1-yl)phenyl)quinazolin-6-yl)pyridin-2-amine] | < 100 nM | < 100 nM
Nc1cc(-c2ccc3ncnc(-c4ccc(N5CCN(CCO)CC5)cc4)c3c2)ccn1 [Compound 41, 2-(4-(4-(6-(2-aminopyridin-4-yl)quinazolin-4-yl)phenyl)piperazin-1-yl)ethan-1-ol] | < 100 nM | < 100 nM
CC(=O)N1CCN(c2ccc(-c3ncnc4ccc(-c5ccnc(N)c5)cc34)cc2)CC1 [Compound 22, 1-(4-(4-(6-(2-aminopyridin-4-yl)quinazolin-4-yl)phenyl)piperazin-1-yl)ethan-1-one] | < 100 nM | < 100 nM
COC(=O)N1CCN(c2ccc(-c3ncnc4ccc(-c5ccnc(N)c5)cc34)cc2F)CC1 [Compound 52, methyl 4-(4-(6-(2-aminopyridin-4-yl)quinazolin-4-yl)-2-fluorophenyl)piperazine-1-carboxylate] | < 100 nM | < 100 nM
Nc1cc(-c2ccc3ncnc(-c4cnc(N5CCC6(CCNC6=O)CC5)c(F)c4)c3c2)ccn1 [Compound 30, 8-(5-(6-(2-aminopyridin-4-yl)quinazolin-4-yl)-3-fluoropyridin-2-yl)-2,8-diazaspiro[4.5]decan-1-one] | 100 to 1000 nM | < 100 nM
[2H]C([2H])([2H])N1CCN(c2ccc(-c3ncnc4ccc(-c5ccnc(N)c5)cc34)cc2F)CC1 [Compound 51, 4-(4-(3-fluoro-4-(4-(methyl-d3)piperazin-1-yl)phenyl)quinazolin-6-yl)pyridin-2-amine] | < 100 nM | < 100 nM
Nc1cc(-c2ccc3ncnc(-c4ccc(N5CC6(COC6)C5)c(F)c4)c3c2)ccn1 [Compound 28, 4-(4-(3-fluoro-4-(2-oxa-6-azaspiro[3.3]heptan-6-yl)phenyl)quinazolin-6-yl)pyridin-2-amine] | 100 to 1000 nM | < 100 nM
CN1CCN(c2ccc(-c3ncnc4ccc(-c5ccnc(N)c5)cc34)cc2F)CC1 [Compound 25, 4-(4-(3-fluoro-4-(4-methylpiperazin-1-yl)phenyl)quinazolin-6-yl)pyridin-2-amine] | < 100 nM | < 100 nM
CS(=O)(=O)N1CCN(c2ccc(-c3ncnc4ccc(-c5ccnc(N)c5)cc34)cc2F)CC1 [Compound 47, 4-(4-(3-fluoro-4-(4-(methylsulfonyl)piperazin-1-yl)phenyl)quinazolin-6-yl)pyridin-2-amine] | < 100 nM | < 100 nM
CN(C)C(=O)N1CCN(c2ccc(-c3ncnc4ccc(-c5ccnc(N)c5)cc34)cc2F)CC1 [Compound 49, 4-(4-(6-(2-aminopyridin-4-yl)quinazolin-4-yl)-2-fluorophenyl)-N,N-dimethylpiperazine-1-carboxamide] | < 100 nM | < 100 nM
Nc1cc(-c2ccc3ncnc(-c4ccc(N5CCN(C(=O)C6CC6)CC5)c(F)c4)c3c2)ccn1 [Compound 53, (4-(4-(6-(2-aminopyridin-4-yl)quinazolin-4-yl)-2-fluorophenyl)piperazin-1-yl)(cyclopropyl)methanone] | < 100 nM | < 100 nM
Nc1cc(-c2ccc3ncnc(-c4ccc(N5CCOCC5)cc4)c3c2)ccn1 [Compound 16, 4-(4-(4-morpholinophenyl)quinazolin-6-yl)pyridin-2-amine] | 100 to 1000 nM | < 100 nM
COCCN1CCN(c2ccc(-c3ncnc4ccc(-c5ccnc(N)c5)cc34)cc2F)CC1 [Compound 54, 4-(4-(3-fluoro-4-(4-(2-methoxyethyl)piperazin-1-yl)phenyl)quinazolin-6-yl)pyridin-2-amine] | < 100 nM | < 100 nM
CC(=O)N1C[C@@H]2C[C@H]1CN2c1ccc(-c2ncnc3ccc(-c4ccnc(N)c4)cc23)cc1F [Compound 40, 1-((1S,4S)-5-(4-(6-(2-aminopyridin-4-yl)quinazolin-4-yl)-2-fluorophenyl)-2,5-diazabicyclo[2.2.1]heptan-2-yl)ethan-1-one] | 100 to 1000 nM | < 100 nM
CC(=O)N1CCN(c2ccc(-c3ccnc4ccc(-c5ccnc(N)c5)cc34)cc2)CC1 [Compound 38, 1-(4-(4-(6-(2-aminopyridin-4-yl)quinolin-4-yl)phenyl)piperazin-1-yl)ethan-1-one] | < 100 nM | < 100 nM
Cc1cc(-c2ccc3ncnc(-c4ccc(N5CCOCC5)c(F)c4)c3n2)ccn1 [Compound 17, 4-(2-fluoro-4-(6-(2-methylpyridin-4-yl)pyrido[3,2-d]pyrimidin-4-yl)phenyl)morpholine] | > 1000 nM | < 100 nM
CC(=O)N1C[C@@H]2C[C@H]1CN2c1ccc(-c2ncnc3ccc(-c4ccnc(N)c4)cc23)cc1 [Compound 39, 1-((1S,4S)-5-(4-(6-(2-aminopyridin-4-yl)quinazolin-4-yl)phenyl)-2,5-diazabicyclo[2.2.1]heptan-2-yl)ethan-1-one] | 100 to 1000 nM | < 100 nM
COc1ccc(-c2ncnc3ccc(-c4ccnc(N)c4)cc23)cc1C [Compound 21, 4-(4-(4-methoxy-3-methylphenyl)quinazolin-6-yl)pyridin-2-amine] | 100 to 1000 nM | < 100 nM
Nc1cc(-c2ccc3nccc(-c4ccc(N5CCOCC5)c(F)c4)c3c2)ccn1 [Compound 32, 4-(4-(3-fluoro-4-morpholinophenyl)quinolin-6-yl)pyridin-2-amine] | 100 to 1000 nM | < 100 nM
Fc1cc(-c2ncnc3ccc(-c4c[nH]c5ncccc45)cc23)ccc1N1CCNCC1 [Compound 33, 4-(3-fluoro-4-(piperazin-1-yl)phenyl)-6-(1H-pyrrolo[2,3-b]pyridin-3-yl)quinazoline] | 100 to 1000 nM | < 100 nM
CN1CCN(c2c(F)cc(-c3ncnc4ccc(-c5ccnc(N)c5)cc34)cc2F)CC1 [Compound 31, 4-(4-(3,5-difluoro-4-(4-methylpiperazin-1-yl)phenyl)quinazolin-6-yl)pyridin-2-amine] | 100 to 1000 nM | < 100 nM
Nc1cc(-c2ccc3ncnc(-c4ccc(N5CCOCC5)c(F)c4)c3c2)ccn1 [Compound 1, 4-(4-(3-fluoro-4-morpholinophenyl)quinazolin-6-yl)pyridin-2-amine] | 100 to 1000 nM | < 100 nM
